Source: PubChem BioAssay (NCI)
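Where inhibition never reached the appropriate level, the endpoint shown equals the highest concentration tested. Otherwise, values were interpolated linearly from a five-concentration, 48-hour dose response in 96-well plates. TGI marks complete inhibition of growth.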

Legend:
Assay in all cases: DTP human tumour cell line panel, 48 h
[1] = tested on: COLO 205 colon
[2] = tested on: HCC-2998 colon
[3] = tested on: HCT-15 colon
[4] = tested on: HL-60(TB) leukemia
[5] = tested on: IGROV1 ovarian
[6] = tested on: MALME-3M melanoma
[7] = tested on: MOLT-4 leukemia
[8] = tested on: NCI-H460 lung
[9] = tested on: RPMI-8226 leukemia
[10] = tested on: SK-MEL-2 melanoma
[11] = tested on: SN12C renal
[12] = tested on: SNB-75 CNS
[13] = tested on: SR leukemia
[14] = tested on: TK-10 renal
[15] = tested on: U251 CNS
[16] = tested on: UACC-257 melanoma

Structure (SMILES): COc1ccc(/C(Cl)=C(\c2ccc(OCCN(C)C)cc2)c2ccc(OC(=O)C(C)(C)C)cc2)cc1
- TGI [1]: 26.8 µM
- TGI [2]: 29.2 µM
- TGI [3]: 22.4 µM
- TGI [4]: 21.1 µM
- TGI [5]: 32.9 µM
- TGI [6]: 30 µM
- TGI [7]: 14.7 µM
- TGI [8]: 28.7 µM
- TGI [9]: 30.9 µM
- TGI [10]: 29.4 µM
- TGI [11]: 27.2 µM
- TGI [12]: 21.9 µM
- TGI [13]: 21.8 µM
- TGI [14]: 32.3 µM
- TGI [15]: 26.5 µM

Structure (SMILES): CSc1nc(NC2OC(COC(C)=O)C(OC(C)=O)C(OC(C)=O)C2OC(C)=O)c(-c2csc(N)n2)c(=O)n1C (stereo unspecified)
- TGI [1]: > 100 µM
- TGI [3]: > 100 µM
- TGI [4]: > 100 µM
- TGI [5]: > 100 µM
- TGI [6]: > 100 µM
- TGI [7]: > 100 µM
- TGI [8]: > 100 µM
- TGI [9]: > 100 µM
- TGI [10]: > 100 µM
- TGI [11]: > 100 µM
- TGI [12]: 47.8 µM
- TGI [13]: > 100 µM
- TGI [14]: > 100 µM
- TGI [15]: > 100 µM
- TGI [16]: > 100 µM

Structure (SMILES): CC1=C(Cl)C=CP(=O)(OC(C)C)C1 (stereo unspecified)
- TGI [1]: > 100 µM
- TGI [2]: > 100 µM
- TGI [3]: > 100 µM
- TGI [4]: > 100 µM
- TGI [5]: > 100 µM
- TGI [6]: > 100 µM
- TGI [7]: > 100 µM
- TGI [8]: > 100 µM
- TGI [9]: > 100 µM
- TGI [10]: > 100 µM
- TGI [11]: > 100 µM
- TGI [12]: 47.3 µM
- TGI [13]: > 100 µM
- TGI [14]: > 100 µM
- TGI [15]: > 100 µM
- TGI [16]: > 100 µM

Structure (SMILES): CC1(C)OCC([C@H]2CC23SCCCS3)O1 (stereo partly specified)
- TGI [1]: > 100 µM
- TGI [3]: > 100 µM
- TGI [4]: > 100 µM
- TGI [5]: > 100 µM
- TGI [6]: > 100 µM
- TGI [7]: > 100 µM
- TGI [8]: > 100 µM
- TGI [9]: > 100 µM
- TGI [10]: > 100 µM
- TGI [11]: > 100 µM
- TGI [12]: > 100 µM
- TGI [13]: > 100 µM
- TGI [14]: > 100 µM
- TGI [15]: > 100 µM
- TGI [16]: > 100 µM

Structure (SMILES): Cc1cc(=O)[nH]c(NNC(C#N)c2c(O)ccc3ccccc23)n1 (stereo unspecified)
- TGI [1]: 57 µM
- TGI [3]: 18.8 µM
- TGI [4]: 8.27 µM
- TGI [5]: 23.4 µM
- TGI [6]: 26.8 µM
- TGI [7]: 48.6 µM
- TGI [8]: 17.2 µM
- TGI [9]: 46.5 µM
- TGI [10]: 27.8 µM
- TGI [11]: 38.2 µM
- TGI [12]: 55.9 µM
- TGI [13]: 26.3 µM
- TGI [14]: 65.8 µM
- TGI [15]: 43.3 µM
- TGI [16]: 19.8 µM

Structure (SMILES): CC1(S)CC2C(CC1Sc1ccccc1)C2(C)C (stereo unspecified)
- TGI [1]: > 100 µM
- TGI [2]: > 100 µM
- TGI [3]: > 100 µM
- TGI [4]: > 100 µM
- TGI [5]: > 100 µM
- TGI [6]: > 100 µM
- TGI [7]: > 100 µM
- TGI [8]: > 100 µM
- TGI [9]: > 100 µM
- TGI [10]: > 100 µM
- TGI [11]: > 100 µM
- TGI [12]: > 100 µM
- TGI [14]: > 100 µM
- TGI [15]: > 100 µM
- TGI [16]: > 100 µM

Structure (SMILES): O=S(=O)(c1ccccc1)n1cc(C[P+](c2ccccc2)(c2ccccc2)c2ccccc2)c2ccccc21
- TGI [1]: 4.78 µM
- TGI [2]: 15.7 µM
- TGI [3]: 30.5 µM
- TGI [4]: 6.84 µM
- TGI [5]: 16 µM
- TGI [6]: 14.7 µM
- TGI [7]: 23.6 µM
- TGI [8]: 15.3 µM
- TGI [9]: 18.8 µM
- TGI [10]: 5.87 µM
- TGI [11]: 19.8 µM
- TGI [12]: 12.6 µM
- TGI [13]: 31.6 µM
- TGI [14]: 16.9 µM
- TGI [15]: 15.8 µM

Structure (SMILES): CCOC(=O)[C@H]1Nc2ccc([N+](=O)[O-])cc2C2c3ccccc3CC21 (stereo partly specified)
- TGI [1]: > 100 µM
- TGI [2]: 44.2 µM
- TGI [3]: 41.5 µM
- TGI [5]: > 100 µM
- TGI [6]: 68 µM
- TGI [7]: 69.1 µM
- TGI [8]: 44.7 µM
- TGI [9]: > 100 µM
- TGI [10]: 72.3 µM
- TGI [11]: 43.2 µM
- TGI [12]: > 100 µM
- TGI [13]: > 100 µM
- TGI [14]: 77.3 µM
- TGI [15]: 33.1 µM
- TGI [16]: 40.2 µM

Structure (SMILES): CNS(=O)(=O)NN(C)S(=O)(=O)c1ccc2ccccc2c1
- TGI [1]: > 100 µM
- TGI [2]: > 100 µM
- TGI [3]: > 100 µM
- TGI [4]: > 100 µM
- TGI [5]: > 100 µM
- TGI [6]: > 100 µM
- TGI [7]: > 100 µM
- TGI [9]: > 100 µM
- TGI [10]: > 100 µM
- TGI [11]: > 100 µM
- TGI [12]: > 100 µM
- TGI [13]: > 100 µM
- TGI [14]: > 100 µM
- TGI [15]: > 100 µM
- TGI [16]: > 100 µM

Structure (SMILES): NCCCCC(=O)c1cccnc1
- TGI [3]: > 100 µM
- TGI [4]: > 100 µM
- TGI [5]: > 100 µM
- TGI [6]: > 100 µM
- TGI [7]: > 100 µM
- TGI [8]: > 100 µM
- TGI [9]: > 100 µM
- TGI [10]: > 100 µM
- TGI [13]: > 100 µM
- TGI [14]: > 100 µM
- TGI [15]: > 100 µM
- TGI [16]: > 100 µM

Structure (SMILES): C[C@@H]1C2=CC[C@@]3(C)C(CCC3[C@H](C)[C@H]3C[C@@]4(C)O[C@@](c5cccnc5)(O3)OC4(C)C)[C@@H]2C2OC2[C@@]12CCC(=O)O2 (stereo partly specified)
- TGI [1]: 77.2 µM
- TGI [2]: > 100 µM
- TGI [3]: > 100 µM
- TGI [4]: 41.4 µM
- TGI [5]: > 100 µM
- TGI [6]: 92.7 µM
- TGI [8]: > 100 µM
- TGI [9]: > 100 µM
- TGI [10]: 58.6 µM
- TGI [11]: > 100 µM
- TGI [12]: > 100 µM
- TGI [13]: > 100 µM
- TGI [14]: > 100 µM
- TGI [15]: > 100 µM
- TGI [16]: > 100 µM

Structure (SMILES): O=C(Nc1cc(Cl)cc(Cl)c1)/C(Cc1nc2ccccc2[nH]c1=O)=N/NC(=O)c1ccncc1
- TGI [1]: > 100 µM
- TGI [2]: > 100 µM
- TGI [3]: > 100 µM
- TGI [4]: > 100 µM
- TGI [5]: > 100 µM
- TGI [6]: > 100 µM
- TGI [7]: > 100 µM
- TGI [8]: > 100 µM
- TGI [9]: > 100 µM
- TGI [10]: > 100 µM
- TGI [14]: > 100 µM
- TGI [15]: > 100 µM
- TGI [16]: > 100 µM

Structure (SMILES): O=S1(=O)CCCS(=O)(=O)C(c2ccccc2)=C1c1ccccc1
- TGI [2]: 32.4 µM
- TGI [3]: > 100 µM
- TGI [4]: 44.6 µM
- TGI [5]: > 100 µM
- TGI [6]: > 100 µM
- TGI [7]: > 100 µM
- TGI [8]: > 100 µM
- TGI [9]: > 100 µM
- TGI [10]: > 100 µM
- TGI [11]: > 100 µM
- TGI [12]: > 100 µM
- TGI [13]: > 100 µM
- TGI [14]: > 100 µM
- TGI [15]: > 100 µM
- TGI [16]: > 100 µM
